Source: US8741906B2 (priority 2011, dated 2014)
pEC50: −log10 of the molar value.

Columns and labels:
[1] = target: T1, human CB2 receptors (Homo sapiens, UniProt P34972); assay: functional cAMP assay, human CB2; assay type: cell-based; details: CHO cells expressing human CB2, cAMP; read-out: human CB2 EC50
T1 construct: expressed in transfected cells; host or cells: CHO cells
Outline: (§1)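 CHO-hCB1/hCB2 cells, KRB + 1 mM IBMX preincubation 30 min 30 °C; cpd 30 min 30 °C; lysis + TR-FRET cAMP detection, 2 h RT; cAMP from std curve; EC50.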

[2] = target: T2, human CB1 receptors (Homo sapiens, UniProt P21554); assay: functional cAMP assay, human CB1; assay type: cell-based; details: CHO cells expressing human CB1, cAMP; read-out: human CB1 EC50
T2 construct: expressed in transfected cells; host or cells: CHO cells
Outline: as §1

T1 sequence (P34972 whole entry): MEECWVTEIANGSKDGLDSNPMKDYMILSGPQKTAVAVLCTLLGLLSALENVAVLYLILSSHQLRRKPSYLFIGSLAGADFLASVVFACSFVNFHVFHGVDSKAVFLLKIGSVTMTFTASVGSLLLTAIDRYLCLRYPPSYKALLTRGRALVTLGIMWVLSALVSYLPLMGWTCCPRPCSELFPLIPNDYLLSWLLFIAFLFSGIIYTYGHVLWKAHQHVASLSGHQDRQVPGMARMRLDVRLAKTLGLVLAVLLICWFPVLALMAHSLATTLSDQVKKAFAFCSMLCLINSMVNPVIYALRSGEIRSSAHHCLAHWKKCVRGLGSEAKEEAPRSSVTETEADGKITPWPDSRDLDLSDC
T2 sequence (P21554 whole entry): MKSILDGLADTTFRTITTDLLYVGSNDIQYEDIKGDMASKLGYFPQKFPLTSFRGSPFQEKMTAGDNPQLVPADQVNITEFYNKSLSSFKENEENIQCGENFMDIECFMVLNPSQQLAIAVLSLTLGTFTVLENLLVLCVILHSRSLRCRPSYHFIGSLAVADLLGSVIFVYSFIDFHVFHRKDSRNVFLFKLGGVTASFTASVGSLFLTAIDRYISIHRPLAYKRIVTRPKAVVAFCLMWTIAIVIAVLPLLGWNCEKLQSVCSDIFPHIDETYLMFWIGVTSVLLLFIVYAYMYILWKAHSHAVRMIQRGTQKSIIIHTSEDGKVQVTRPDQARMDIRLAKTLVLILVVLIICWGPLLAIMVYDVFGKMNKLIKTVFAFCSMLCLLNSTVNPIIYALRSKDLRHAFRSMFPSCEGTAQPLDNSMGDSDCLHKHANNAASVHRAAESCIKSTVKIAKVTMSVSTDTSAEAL

Row | SMILES | pEC50 [1] | pEC50 [2]
1 | CC(C)(C)c1nc(N2CC[C@](C)(O)C2)c2nnn(Cc3ncccc3Cl)c2n1 [Example 224-a, (S)-1-(5-tert-butyl-3-((3-chloropyridin-2-yl)methyl)-3H-[1,2,3]triazolo[4,5-d]pyrimidin-7-yl)-3-methylpyrrolidin-3-ol] | 8.96 | 6.05
2 | CC(C)(C)c1nc(N2CC[C@@](C)(O)C2)c2nnn(Cc3ncccc3Cl)c2n1 [Example 224-b, (R)-1-(5-tert-butyl-3-((3-chloropyridin-2-yl)methyl)-3H-[1,2,3]triazolo[4,5-d]pyrimidin-7-yl)-3-methylpyrrolidin-3-ol] | 8.19 | < 5.00
3 | Cc1nnc(Cn2nnc3c(N4CC[C@](C)(O)C4)nc(C(C)(C)C)nc32)o1 [Example 225-a, (S)-1-(5-tert-butyl-3-((5-methyl-1,3,4-oxadiazol-2-yl)methyl)-3H-[1,2,3]triazolo[4,5-d]pyrimidin-7-yl)-3-methylpyrrolidin-3-ol] | 7.54 | < 5.00
4 | Cc1nnc(Cn2nnc3c(N4CC[C@@](C)(O)C4)nc(C(C)(C)C)nc32)o1 [Example 225-b, (R)-1-(5-tert-butyl-3-((5-methyl-1,3,4-oxadiazol-2-yl)methyl)-3H-[1,2,3]triazolo[4,5-d]pyrimidin-7-yl)-3-methylpyrrolidin-3-ol] | 6.76 | < 5.00
5 | Cc1noc(Cn2nnc3c(N4CC[C@](C)(O)C4)nc(C(C)(C)C)nc32)n1 [Example 226-a, (S)-1-(5-tert-butyl-3-((3-methyl-1,2,4-oxadiazol-5-yl)methyl)-3H-[1,2,3]triazolo[4,5-d]pyrimidin-7-yl)-3-methylpyrrolidin-3-ol] | 7.24 | < 5.00
6 | Cc1noc(Cn2nnc3c(N4CC[C@@](C)(O)C4)nc(C(C)(C)C)nc32)n1 [Example 226-b, (R)-1-(5-tert-butyl-3-((3-methyl-1,2,4-oxadiazol-5-yl)methyl)-3H-[1,2,3]triazolo[4,5-d]pyrimidin-7-yl)-3-methylpyrrolidin-3-ol] | 6.63 | < 5.00
7 | Cn1nnnc1Cn1nnc2c(N3CC[C@](C)(O)C3)nc(C(C)(C)C)nc21 [Example 227-a, (S)-1-(5-tert-butyl-3-((1-methyl-1H-tetrazol-5-yl)methyl)-3H-[1,2,3]triazolo[4,5-d]pyrimidin-7-yl)-3-methylpyrrolidin-3-ol] | 7.73 | < 5.00
8 | Cn1nnnc1Cn1nnc2c(N3CC[C@@](C)(O)C3)nc(C(C)(C)C)nc21 [Example 227-b, (R)-1-(5-tert-butyl-3-((1-methyl-1H-tetrazol-5-yl)methyl)-3H-[1,2,3]triazolo[4,5-d]pyrimidin-7-yl)-3-methylpyrrolidin-3-ol] | 7.36 | < 5.00
9 | Cc1nonc1Cn1nnc2c(N3CC[C@](C)(O)C3)nc(C(C)(C)C)nc21 [Example 228-a, (S)-1-(5-tert-butyl-3-((4-methyl-1,2,5-oxadiazol-3-yl)methyl)-3H-[1,2,3]triazolo[4,5-d]pyrimidin-7-yl)-3-methylpyrrolidin-3-ol] | 8.74 | < 5.00
10 | Cc1nonc1Cn1nnc2c(N3CC[C@@](C)(O)C3)nc(C(C)(C)C)nc21 [Example 228-b, (R)-1-(5-tert-butyl-3-((4-methyl-1,2,5-oxadiazol-3-yl)methyl)-3H-[1,2,3]triazolo[4,5-d]pyrimidin-7-yl)-3-methylpyrrolidin-3-ol] | 8.48 | < 5.00
11 | CC(C)(C)c1nc(N2CC[C@](C)(O)C2)c2nnn(CCC(F)(F)F)c2n1 [Example 229-a, (S)-1-(5-tert-butyl-3-(3,3,3-trifluoropropyl)-3H-[1,2,3]triazolo[4,5-d]pyrimidin-7-yl)-3-methylpyrrolidin-3-ol] | 7.52 | < 5.00
12 | CC(C)(C)c1nc(N2CC[C@@](C)(O)C2)c2nnn(CCC(F)(F)F)c2n1 [Example 229-b, (R)-1-(5-tert-butyl-3-(3,3,3-trifluoropropyl)-3H-[1,2,3]triazolo[4,5-d]pyrimidin-7-yl)-3-methylpyrrolidin-3-ol] | 7.43 | < 5.00
13 | CC(C)(C)c1nc(N2CC[C@](C)(O)C2)c2nnn(Cc3nnnn3C3CC3)c2n1 [Example 230-a, (S)-1-(5-tert-butyl-3-((1-cyclopropyl-1H-tetrazol-5-yl)methyl)-3H-[1,2,3]triazolo[4,5-d]pyrimidin-7-yl)-3-methylpyrrolidin-3-ol] | 8.57 | < 5.00
14 | CC(C)(C)c1nc(N2CC[C@@](C)(O)C2)c2nnn(Cc3nnnn3C3CC3)c2n1 [Example 230-b, (R)-1-(5-tert-butyl-3-((1-cyclopropyl-1H-tetrazol-5-yl)methyl)-3H-[1,2,3]triazolo[4,5-d]pyrimidin-7-yl)-3-methylpyrrolidin-3-ol] | 7.87 | < 5.00
